Converted amounts (≈) assume the structure as drawn. Like-named read-outs stand apart in the source and are kept apart here.
What was measured:
L. donovani = test system: L. donovani; parameters: method as in PMID 26901446; conditions: cited from earlier work
[1] = parameters: method as in PMID 26901446; conditions: mice, cited from earlier work
M. tb, strain H37Rv [2] = assay: LORA minimum inhibitory concentration assay (hypoxic); format: cell-based; conditions: Mycobacterium tuberculosis
Leishmania infantum = assay: L. inf growth inhibition in mouse macrophages (LMPH); format: cell-based; conditions: Macrophage, mean of at least two determinations
M. tb, strain H37Rv [3] = assay: MABA minimum inhibitory concentration assay (aerobic); format: cell-based, Mycobacterium tuberculosis
Trypanosoma cruzi = assay: T. cruzi growth inhibition on MRC-5 cells (LMPH); format: cell-based; conditions: MRC5
[4] = test system: human lung fibroblasts (MRC-5 cells); assay: cytotoxicity toward MRC-5 cells (LMPH); format: cell-based; conditions: MRC5
Leishmania donovani = assay: L. don amastigote mouse macrophage-based luciferase assay (CDRI); format: cell-based; conditions: in mouse macrophages, single test (CDRI)
[5] = kinetic aqueous solubility (Method A); format: physicochemical; conditions: 20 °C
[6] = Mycobacterium tuberculosis, H37RV, aerobic, read-out: MIC MABA
[7] = water, pH 7, kinetic, water (pH 7), read-out: aq solubility pH 7
[8] = 0.1 M HCl, pH 1, kinetic, 0.1 M HCl (pH 1), read-out: aq solubility pH 1

For CC1(COc2ccc(OC(F)(F)F)cc2)Cn2cc([N+](=O)[O-])nc2O1 (racemic) [rac-4], the “% inhibition, L. don mouse model” value (L. donovani; 6.25 mg/kg po daily for 5 d) is given as 99%, the ED50 (L. donovani; L. don mouse model) is given as 3.0 mg/kg and the AUClast ([1]; intravenous 1 mg/kg) is given as 1.69 μg·;h/mL. For the same molecule, the C0 ([1]; intravenous 1 mg/kg) was 880 ng/mL, the CL ([1]; intravenous 1 mg/kg) was 9.5 mL/min/kg and the Vdss ([1]; intravenous 1 mg/kg) was 1.7 L/kg. The t1/2 ([1]; intravenous 1 mg/kg) was 2.2 h, the AUClast ([1]; oral 25 mg/kg) was 33.5 μ·h/mL and the Cmax ([1]; oral 25 mg/kg) was 4100 ng/mL. The “F (oral bioavailability)” value ([1]; oral 25 mg/kg) was 79% and the Tmax ([1]; oral 25 mg/kg) was 4.0 h.
With CC1(COCc2ccc(-c3ccc(F)cc3)cc2)CCn2cc([N+](=O)[O-])nc2O1 (centres unmarked) [compound 27] the MIC (M. tb, strain H37Rv [2]) was 0.61 µM (≈ 0.242 µg/mL), the IC50 (Leishmania infantum) was 1800 nM and the MIC (M. tb, strain H37Rv [3]; [6]) was 0.085 µM (≈ 0.0338 µg/mL). It also gave an IC50 (Trypanosoma cruzi) of 840 nM, an IC50 [4] greater than 64000 nM and an IC50 (Leishmania donovani) of 220 nM.
With CC1(COc2ccc(-c3ccc(F)cc3)cc2)CCn2cc([N+](=O)[O-])nc2O1 (centres unmarked) [compound 52] the MIC (M. tb, strain H37Rv [2]) was 1.4 µM (≈ 0.537 µg/mL), the IC50 (Leishmania infantum) was 340 nM and the MIC (M. tb, strain H37Rv [3]; [6]) was 0.085 µM (≈ 0.0326 µg/mL). It also gave an IC50 (Trypanosoma cruzi) of 350 nM, an IC50 [4] greater than 64000 nM and an IC50 (Leishmania donovani) of 200 nM.
For O=[N+]([O-])c1cn2c(n1)OC(COc1ccc(-c3ccc(F)nc3)cc1)CC2 (centres unmarked) [compound 55, 7-{[4-(6-Fluoropyridin-3-yl)phenoxy]methyl}-2-nitro-6,7-dihydro-5H-imidazo[2,1-b][1,3]oxazine], the MIC (M. tb, strain H37Rv [2]) was 3.5 µM (≈ 1.3 µg/mL), the IC50 (Leishmania infantum) was 83 nM and the MIC (M. tb, strain H37Rv [3]; [6]) was 0.24 µM (≈ 0.0889 µg/mL). The solubility at 15 min [5, 7] was 0.36 µg/mL (≈ 0.972 µM), the IC50 (Trypanosoma cruzi) was 27 nM and the IC50 [4] was greater than 64000 nM. The IC50 (Leishmania donovani) was greater than 10000 nM.
With CC1(COc2ccc(-c3ccc(F)nc3)cc2)CCn2cc([N+](=O)[O-])nc2O1 (centres unmarked) [compound 56] the MIC (M. tb, strain H37Rv [2]) was 2.7 µM (≈ 1.04 µg/mL), the IC50 (Leishmania infantum) was 160 nM and the MIC (M. tb, strain H37Rv [3]; [6]) was 0.29 µM (≈ 0.111 µg/mL). The IC50 (Trypanosoma cruzi) was 300 nM, the IC50 [4] was greater than 64000 nM and the IC50 (Leishmania donovani) was 120 nM.
In the case of O=[N+]([O-])c1cn2c(n1)OC(COc1ccc(-c3ccc(F)cc3F)cn1)CC2 (centres unmarked) [compound 62], the MIC (M. tb, strain H37Rv [2]) is reported as 2.4 µM (≈ 0.932 µg/mL), the IC50 (Leishmania infantum) is reported as 37 nM and the MIC (M. tb, strain H37Rv [3]; [6]) is reported as 0.1 µM (≈ 0.0388 µg/mL). It also gave a solubility at 15 min [5, 8] of 1.5 µg/mL (≈ 3.86 µM), a solubility at 15 min [5, 7] of 0.13 µg/mL (≈ 0.335 µM) and an IC50 (Trypanosoma cruzi) of 30 nM. The IC50 [4] was greater than 64000 nM and the IC50 (Leishmania donovani) was 70 nM.
With O=[N+]([O-])c1cn2c(n1)OC(COc1ccc(-c3ccc(OC(F)(F)F)cc3)cn1)CC2 (centres unmarked) [compound 64] the MIC (M. tb, strain H37Rv [2]) was 0.47 µM (≈ 0.205 µg/mL), the IC50 (Leishmania infantum) was 350 nM and the MIC (M. tb, strain H37Rv [3]; [6]) was 0.02 to 0.04 µM (≈ 0.00873 to 0.0175 µg/mL). It also gave an MIC (M. tb, strain H37Rv [3]; aerobic, read-out: MIC MABA) of 0.027 µM (≈ 0.0118 µg/mL), an IC50 (Trypanosoma cruzi) of 120 nM and an IC50 [4] greater than 64000 nM. It also gave an IC50 (Leishmania donovani) of 50 nM.
For CC1(COc2ccc(-c3ccc(OC(F)(F)F)cc3)cn2)CCn2cc([N+](=O)[O-])nc2O1 (centres unmarked) [compound 65], the MIC (M. tb, strain H37Rv [2]) was 5.3 µM (≈ 2.39 µg/mL), the IC50 (Leishmania infantum) was 3800 nM and the MIC (M. tb, strain H37Rv [3]; [6]) was 0.13 µM (≈ 0.0585 µg/mL). The IC50 (Trypanosoma cruzi) was 1000 nM, the IC50 [4] was greater than 64000 nM and the IC50 (Leishmania donovani) was 260 nM.
Work on CC1(COc2ccc(-c3ccc(F)cc3F)nc2)CCn2cc([N+](=O)[O-])nc2O1 (centres unmarked) [compound 92] yielded an MIC (M. tb, strain H37Rv [2]) of 4.9 µM (≈ 1.97 µg/mL), an IC50 (Leishmania infantum) of 170 nM and an MIC (M. tb, strain H37Rv [3]; [6]) of 0.4 µM (≈ 0.161 µg/mL). It also gave an IC50 (Trypanosoma cruzi) of 270 nM, an IC50 [4] greater than 64000 nM and an IC50 (Leishmania donovani) of 310 nM.
In the case of CC1(COc2ccc(-c3ccc(OC(F)(F)F)cc3)nc2)CCn2cc([N+](=O)[O-])nc2O1 (centres unmarked) [compound 96], the MIC (M. tb, strain H37Rv [2]) is reported as 0.88 µM (≈ 0.396 µg/mL), the IC50 (Leishmania infantum) is reported as 4000 nM and the MIC (M. tb, strain H37Rv [3]; [6]) is reported as 0.05 µM (≈ 0.0225 µg/mL). For the same molecule, the IC50 (Trypanosoma cruzi) was 250 nM, the IC50 [4] was greater than 64000 nM and the IC50 (Leishmania donovani) was 650 nM.
For O=[N+]([O-])c1cn2c(n1)OC(COc1cccc(-c3ccc(F)cc3)n1)CC2 (centres unmarked) [compound 99], the MIC (M. tb, strain H37Rv [2]) was 3 µM (≈ 1.11 µg/mL), the IC50 (Leishmania infantum) was 140 nM and the MIC (M. tb, strain H37Rv [3]; [6]) was 1.7 µM (≈ 0.63 µg/mL). The solubility at 15 min [5, 8] was 0.56 µg/mL (≈ 1.51 µM), the solubility at 15 min [5, 7] was 0.027 µg/mL (≈ 0.0729 µM) and the IC50 (Trypanosoma cruzi) was 160 nM. It also gave an IC50 [4] of 59000 nM and an IC50 (Leishmania donovani) of 310 nM.
Molecule O=[N+]([O-])c1cn2c(n1)OC(COc1cccc(-c3ccc(F)cc3F)n1)CC2 (centres unmarked) [compound 102] has an MIC (M. tb, strain H37Rv [2]) greater than 128 µM, an IC50 (Leishmania infantum) of 4000 nM and an MIC (M. tb, strain H37Rv [3]; Mycobacterium tuberculosis, H37RV, read-out: MIC MABA, aerobic) greater than 128 µM. For the same molecule, the IC50 (Trypanosoma cruzi) was 230 nM, the IC50 [4] was greater than 64000 nM and the IC50 (Leishmania donovani) was 250 nM.
O=[N+]([O-])c1cn2c(n1)OC(COc1ccc(-c3ccc(F)cn3)cn1)CC2 (centres unmarked) [compound 105] showed an MIC (M. tb, strain H37Rv [2]) of 11 µM (≈ 4.08 µg/mL), an IC50 (Leishmania infantum) of 50000 nM and an MIC (M. tb, strain H37Rv [3]; [6]) of 0.15 µM (≈ 0.0557 µg/mL). It also gave an IC50 (Trypanosoma cruzi) of 340 nM, an IC50 [4] greater than 64000 nM and an IC50 (Leishmania donovani) of 60 nM.
For CC1(COc2ccc(-c3ccc(F)cn3)cn2)CCn2cc([N+](=O)[O-])nc2O1 (centres unmarked) [compound 106], the MIC (M. tb, strain H37Rv [2]) was 9.5 µM (≈ 3.66 µg/mL), the IC50 (Leishmania infantum) was 340 nM and the MIC (M. tb, strain H37Rv [3]; [6]) was 0.4 µM (≈ 0.154 µg/mL). The IC50 (Trypanosoma cruzi) was 250 nM, the IC50 [4] was greater than 64000 nM and the IC50 (Leishmania donovani) was 150 nM.
O=[N+]([O-])c1cn2c(n1)OC(COc1ccc(-c3ccc(F)nc3F)cn1)CC2 (centres unmarked) [compound 109] showed an MIC (M. tb, strain H37Rv [2]) of 4.2 µM (≈ 1.64 µg/mL), an IC50 (Leishmania infantum) of 190 nM and an MIC (M. tb, strain H37Rv [3]; [6]) of 0.25 µM (≈ 0.0973 µg/mL). For the same molecule, the IC50 (Trypanosoma cruzi) was 290 nM, the IC50 [4] was greater than 64000 nM and the IC50 (Leishmania donovani) was greater than 10000 nM.
O=[N+]([O-])c1cn2c(n1)OC(COc1ccc(-c3ccc(F)nc3F)nc1)CC2 (centres unmarked) [compound 114] gave an MIC (M. tb, strain H37Rv [2]) of 41 µM (≈ 16 µg/mL), an IC50 (Leishmania infantum) of 52000 nM and an MIC (M. tb, strain H37Rv [3]; [6]) of 1.2 µM (≈ 0.467 µg/mL). The IC50 (Trypanosoma cruzi) was 350 nM, the IC50 [4] was greater than 64000 nM and the IC50 (Leishmania donovani) was 80 nM.

— publication PMC7722354, “7-Substituted 2-Nitro-5,6-dihydroimidazo[2,1-b][1,3]oxazines: Novel Antitubercular Agents Lead to a New Preclinical Candidate for Visceral Leishmaniasis” (Journal of Medicinal Chemistry, 2017)
